Results: US7985731B2, “Sugar chain added GLP-1 peptide” (Otsuka Chemical Holdings Co., Ltd., priority 2007, dated 2011)
Peptide text beside a SMILES is read from it. * marks the point of attachment. X1 = CC(=O)N[C@@H]1[C@@H](O)[C@H](O[C@@H]2O[C@H](CO)[C@@H](O[C@@H]3O[C@H](CO[C@H]4O[C@H](CO)[C@@H](O)[C@H](O)[C@@H]4O[C@@H]4O[C@H](CO)[C@@H](O[C@@H]5O[C@H](CO[C@]6(C(=O)O)C[C@H](O)[C@@H](NC(C)=O)[C@H]([C@H](O)[C@H](O)CO)O6)[C@H](O)[C@H](O)[C@H]5O)[C@H](O)[C@H]4NC(C)=O)[C@@H](O)[C@H](O[C@H]4O[C@H](CO)[C@@H](O)[C@H](O)[C@@H]4O[C@@H]4O[C@H](CO)[C@@H](O[C@@H]5O[C@H](CO[C@]6(C(=O)O)C[C@H](O)[C@@H](NC(C)=O)[C@H]([C@H](O)[C@H](O)CO)O6)[C@H](O)[C@H](O)[C@H]5O)[C@H](O)[C@H]4NC(C)=O)[C@@H]3O)[C@H](O)[C@H]2NC(C)=O)[C@@H](CO)O[C@H]1NC(=O)C*

Key:
C57BL/6JJcl mice = experiment: Test Example 7: Oral Glucose Tolerance Test (OGTT); assay type: in vivo; conditions: for activity of suppressing rise in blood-sugar levels in OGTT: 0.09 nmol/kg intraperitoneal; for dose dependence of activity of suppressing rise in blood-sugar levels in OGTT: doses 0.9 nmol/kg and 0.09 nmol/kg intraperitoneal
Summary of the method: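 Overnight-fasted mice received oral glucose 1 mg/g 30 minutes after treatment. Orbital blood taken before and at 30, 60, 120 minutes post-glucose. Blood glucose measured by glucometer.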

[1] = system: db/db (BKS.Cg-+Lepr db/+Lepr db/Jcl) mice; experiment: Test Example 8: effect of lowering blood-sugar levels in diabetes model mice; assay type: in vivo; conditions: 9 nmol/kg intraperitoneal; for effect of lowering blood-sugar levels in db/db mice: 10-week-old male mice; for durability of effect of lowering blood-sugar levels in db/db mice: up to 300 minutes
Description: The oligosaccharide chain added GLP-1 peptide prepared in Example 2, 3, 4, 21 or 23 or the GLP-1 prepared in Comparative Example 1 in a PBS solution (9 nmol/10 ml) was intraperitoneally administered at a dose of 10 ml/kg to BKS.Cg−+Lepr^db/+Lepr^db/Jcl mice (10 week old, male). Blood was collected from the orbits before the compound administration and 30 minutes, 60 minutes, 120 minutes, 180 minutes and 300 minutes after the compound administration. Blood-sugar levels were measured using ACCU-CHEK Aviva (Roche Diagnostics).
The db/db (BKS.Cg−+Lepr^db/+Lepr^db/Jcl) mice serving as diabetes model mice have a mutation in a receptor of leptin which is anorexigenic/energy metabolism-accelerating hormone and develops conditions such as obesity or hyperglycemia.
Blood-sugar levels were measured over time, and their effects of lowering blood-sugar levels were compared with that of the GLP-1 without oligosaccharide chain addition of Comparative Example 1.

mouse GLP-1 receptor = target: T1, mouse GLP-1 receptor (Mus musculus, UniProt O35659); experiment: Test Example 6: ability to synthesize cAMP in mouse GLP-1 receptor-expressing CHO-K1 cells; assay type: cell-based
T1 construct: expressed in transfected cells
T1 sequence (O35659 22-463): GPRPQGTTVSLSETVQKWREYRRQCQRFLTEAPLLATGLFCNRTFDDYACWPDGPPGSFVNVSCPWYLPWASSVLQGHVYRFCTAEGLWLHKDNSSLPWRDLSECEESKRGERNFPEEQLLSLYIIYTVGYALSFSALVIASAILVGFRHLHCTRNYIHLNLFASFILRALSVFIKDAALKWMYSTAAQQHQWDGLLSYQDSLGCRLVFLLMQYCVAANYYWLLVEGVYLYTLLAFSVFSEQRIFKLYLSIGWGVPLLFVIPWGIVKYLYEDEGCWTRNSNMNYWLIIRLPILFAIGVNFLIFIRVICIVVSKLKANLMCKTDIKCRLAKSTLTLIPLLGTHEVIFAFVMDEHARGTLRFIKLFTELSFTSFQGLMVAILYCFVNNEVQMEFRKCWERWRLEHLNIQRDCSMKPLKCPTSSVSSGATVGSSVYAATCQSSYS
Description: 1. Construction of Mouse GLP-1 Receptor-Expressing Vector
A mouse GLP1 receptor sense primer (5′-[…]-3′) (SEQ ID NO: 152) and a mouse GLP-1 receptor antisense primer (5′-[…]-3′) (SEQ ID NO: 153) capable of binding to the 5′ and 3′ ends of mouse GLP-1 receptor cDNA were separately synthesized. PCR was performed using Ex Taq polymerase (TaKaRa) with cDNA (Clone ID: 40046534, Open Biosystems) as a template. Specifically, 50 μL in total of reaction solution consisting of 1 μL of template cDNA (10 ng/μL), 4 μL of 2.5 mM dNTPs, 1 μL of primer solution mixtures (each 50 μM), 5 μL of ×10 Ex Taq polymerase Buffer, 0.25 μL of Ex Taq polymerase and 38.75 μL of sterilized water was used and allowed to react by 94° C. for 1 minute; 94° C. for 45 seconds, 55° C. for 1 minute and 72° C. for 2 minutes (35 cycles); and 72° C. for 10 minutes. The PCR reaction product was electrophoresed on 1% agarose gel, and the cDNA fragment was purified using Wizard SV Gel and PCR Clean-up System (Promega) and treated with restriction enzymes (EcoRI and NheI) to obtain mouse GLP-1 receptor cDNA.
To efficiently obtain cells highly expressing a mouse GLP-1 receptor, a pIRES-gfp vector was used as an expression vector. This vector was prepared by inserting, to a vector pEGFP-N1 (Clontech), an IRES gene-containing DNA fragment obtained by the restriction enzyme treatment (Sal I and BamHI) of pIRESpuro2 (Clontech).
The mouse GLP-1 receptor cDNA fragment was inserted to pIRES-gfp to thereby obtain a mouse GLP-1 receptor-expressing vector mGLP-1R/pIRES-gfp. The DNA sequence of the obtained vector was confirmed using ABI3100-Avant (Applied Biosystems).
2. Preparation of Mouse GLP-1 Receptor-Expressing CHO-K1 Cells
CHO-K1 cells (ATCC catalog No. CCL-61) were transfected with the obtained mGLP-1R/pIRES-gfp using FuGENE (registered trademark) (Roche) according to the instruction manual. The transfected CHO-K1 cells were cultured in RPMI1640 medium (Wako Pure Chemical Industries) containing 10% FCS (Hyclone) and penicillin-streptomycin (SIGMA). Drug selection was conducted by the addition of 1.0 mg/ml G418 (Wako Pure Chemical Industries). The drug resistance cells were sorted with a cell sorter (EPICS ALTRA, Beckman Coulter) using a GFP expression level as an index. After the sorting, the limiting dilution method was conducted to obtain cells highly expressing GFP, namely, cells highly expressing a mouse GLP-1 receptor. The obtained cells were used as mouse GLP-1 receptor-expressing CHO-K1 cells in the experiment shown below.
3. Analysis of Agonist Effect of Oligosaccharide Chain Added GLP-1 Peptide (Ability to Synthesize cAMP)
The mouse GLP-1 receptor-expressing CHO-K1 cells prepared in the preceding paragraph 2 were used to evaluate the agonist effect of the oligosaccharide chain added GLP-1 peptide using the ability to synthesize cAMP as an index.
The mouse GLP-1 receptor-expressing CHO-K1 cells were suspended at a concentration of 5×10^5 cells/ml in RPMI1640 medium containing 10% FCS. The cell suspension was seeded at a concentration of 100 μL per well to a flat-bottomed 96-well plate (Falcon) and cultured at 5% CO2 at 37° C. for 16 hours. The culture supernatant was discarded. The oligosaccharide chain added GLP-1 peptide dissolved in Krebs Ringer bicarbonate Buffer containing 2.5 mM glucose was added at a concentration of 100 μL/well and cultured at 37° C. for 30 minutes. The culture supernatant was immediately discarded. The amount of cAMP synthesized in the mouse GLP-1 receptor-expressing CHO-K1 cells was measured using cAMP ELISA Kit (GE Healthcare or Cayman) and used as an index for the agonist effect of the oligosaccharide chain added GLP-1 peptide on mouse GLP-1 receptors.
GLP-1 increases intracellular cAMP concentrations through the binding to its receptor and promotes insulin secretion. Thus, the activity of the oligosaccharide chain added GLP-1 peptide was evaluated using the ability to synthesize cAMP as an index. […]

[2] = 9 nmol/kg intraperitoneal 30 minutes before glucose 1 mg/g oral

| SMILES | activity of suppressing rise in blood-sugar levels in OGTT (C57BL/6JJcl mice) | effect of suppressing rise in blood-sugar levels in OGTT (C57BL/6JJcl mice; 0.9 nmol/kg intraperitoneal) | effect of suppressing rise in blood-sugar levels in OGTT (C57BL/6JJcl mice; [2]) | dose dependence of activity of suppressing rise in blood-sugar levels in OGTT (C57BL/6JJcl mice) | activity of suppressing rise in blood-sugar levels in OGTT relative to GLP-1 (times) (C57BL/6JJcl mice; from doses giving equivalent effect, GLP-1 at 9 nmol/kg) | effect of lowering blood-sugar levels in db/db mice [1] | durability of effect of lowering blood-sugar levels in db/db mice [1] | cAMP synthesis activity compared with GLP-1 (in words) (mouse GLP-1 receptor) |
| --- | --- | --- | --- | --- | --- | --- | --- | --- |
| CC[C@H](C)[C@H](NC(=O)[C@H](Cc1ccccc1)NC(=O)[C@H](CCC(=O)O)NC(=O)[C@H](CCCCN)NC(=O)[C@H](C)NC(=O)[C@H](C)NC(=O)[C@H](CCC(N)=O)NC(=O)CNC(=O)[C@H](CCC(=O)O)NC(=O)[C@H](CC(C)C)NC(=O)[C@H](Cc1ccc(O)cc1)NC(=O)[C@H](CO)NC(=O)[C@H](CO)NC(=O)[C@@H](NC(=O)[C@H](CC(=O)O)NC(=O)[C@H](CO)NC(=O)[C@@H](NC(=O)[C@H](Cc1ccccc1)NC(=O)[C@@H](NC(=O)CNC(=O)[C@H](CCC(=O)O)NC(=O)[C@H](C)NC(=O)[C@@H](N)Cc1c[nH]cn1)[C@@H](C)O)[C@@H](C)O)C(C)C)C(=O)N[C@@H](C)C(=O)N[C@@H](Cc1c[nH]c2ccccc12)C(=O)N[C@@H](CC(C)C)C(=O)N[C@H](C(=O)N[C@@H](CCCCN)C(=O)NCC(=O)N[C@@H](CSCC(=O)N[C@@H]1O[C@H](CO)[C@@H](O[C@@H]2O[C@H](CO)[C@@H](O[C@@H]3O[C@H](CO[C@H]4O[C@H](CO)[C@@H](O)[C@H](O)[C@@H]4O[C@@H]4O[C@H](CO)[C@@H](O[C@@H]5O[C@H](CO[C@]6(C(=O)O)C[C@H](O)[C@@H](NC(C)=O)[C@H]([C@H](O)[C@H](O)CO)O6)[C@H](O)[C@H](O)[C@H]5O)[C@H](O)[C@H]4NC(C)=O)[C@@H](O)[C@H](O[C@H]4O[C@H](CO)[C@@H](O)[C@H](O)[C@@H]4O[C@@H]4O[C@H](CO)[C@@H](O[C@@H]5O[C@H](CO[C@]6(C(=O)O)C[C@H](O)[C@@H](NC(C)=O)[C@H]([C@H](O)[C@H](O)CO)O6)[C@H](O)[C@H](O)[C@H]5O)[C@H](O)[C@H]4NC(C)=O)[C@@H]3O)[C@H](O)[C@H]2NC(C)=O)[C@H](O)[C@H]1NC(C)=O)C(=O)NCC(=O)O)C(C)C [Example 4, 36Cys GLP-1-disialo] | equivalent to that of the GLP-1 at a dose of 9 nmol/kg | suppressed rise in blood-sugar levels almost completely | strong effect of suppressing rise in blood-sugar levels | dose-dependent activity of suppressing rise in blood-sugar levels | about 100 times | strong effect of lowering blood-sugar levels | blood-sugar levels were kept at low levels after 300 minutes | activity equal to or more than that of the GLP-1 |
| CC[C@H](C)[C@H](NC(=O)[C@H](Cc1ccccc1)NC(=O)[C@H](CCC(=O)O)NC(=O)[C@H](CCCCN)NC(=O)[C@H](C)NC(=O)[C@H](C)NC(=O)[C@H](CCC(N)=O)NC(=O)CNC(=O)[C@H](CCC(=O)O)NC(=O)[C@H](CC(C)C)NC(=O)[C@H](Cc1ccc(O)cc1)NC(=O)[C@H](CO)NC(=O)[C@H](CO)NC(=O)[C@@H](NC(=O)[C@H](CC(=O)O)NC(=O)[C@H](CO)NC(=O)[C@@H](NC(=O)[C@H](Cc1ccccc1)NC(=O)[C@@H](NC(=O)CNC(=O)[C@H](CCC(=O)O)NC(=O)[C@H](C)NC(=O)[C@@H](N)Cc1c[nH]cn1)[C@@H](C)O)[C@@H](C)O)C(C)C)C(=O)N[C@@H](CSCC(=O)N[C@@H]1O[C@H](CO)[C@@H](O[C@@H]2O[C@H](CO)[C@@H](O[C@@H]3O[C@H](CO[C@H]4O[C@H](CO)[C@@H](O)[C@H](O)[C@@H]4O[C@@H]4O[C@H](CO)[C@@H](O[C@@H]5O[C@H](CO[C@]6(C(=O)O)C[C@H](O)[C@@H](NC(C)=O)[C@H]([C@H](O)[C@H](O)CO)O6)[C@H](O)[C@H](O)[C@H]5O)[C@H](O)[C@H]4NC(C)=O)[C@@H](O)[C@H](O[C@H]4O[C@H](CO)[C@@H](O)[C@H](O)[C@@H]4O[C@@H]4O[C@H](CO)[C@@H](O[C@@H]5O[C@H](CO[C@]6(C(=O)O)C[C@H](O)[C@@H](NC(C)=O)[C@H]([C@H](O)[C@H](O)CO)O6)[C@H](O)[C@H](O)[C@H]5O)[C@H](O)[C@H]4NC(C)=O)[C@@H]3O)[C@H](O)[C@H]2NC(C)=O)[C@H](O)[C@H]1NC(C)=O)C(=O)N[C@@H](Cc1c[nH]c2ccccc12)C(=O)N[C@@H](CC(C)C)C(=O)N[C@H](C(=O)N[C@@H](CCCCN)C(=O)NCC(=O)N[C@@H](CCCNC(=N)N)C(=O)NCC(=O)O)C(C)C [Example 21, 30Cys GLP-1-disialo] (H-HAEGTFTSDVSSYLEGQAAKEFIC(X1)WLVKGRG-OH) | weaker activity of suppressing rise in blood-sugar levels than that of the 36Cys GLP-1-disialo at the same dose | suppressed rise in blood-sugar levels almost completely | strong effect of suppressing rise in blood-sugar levels | dose-dependent activity of suppressing rise in blood-sugar levels |  | strong effect of lowering blood-sugar levels | blood-sugar levels were kept at low levels after 300 minutes | activity equal to or more than that of the GLP-1 |
